Test results: patent US11845803B2, “Combination therapies for treatment of BCMA-related cancers and autoimmune disorders” (Fred Hutchinson Cancer Center, priority 2017, dated 2023)

What was measured:
[1] = system: CD19 CAR-T cells co-cultured with Raji or K562/CD19+ target cells; assay: CD19 CAR-T cell viability and effector function in the presence of GSI; type: cell-based, human
Procedure: (A) CD19 staining of K562 CD19^+ and Raji cells that were cultured with or without GSI for ±12-16 h. Isotype control shown as gray line.
(C) CD19 CAR-T cells were co-cultured with K562/CD19 target cells in media containing various concentrations of RO4929097. RO4929097 inhibits CD19 CAR-T cell effector function at concentrations of 3 μM when co-cultured, as determined by measuring IL-2 (upper panel) and IFNγ (lower panel) production.
(D) IL-2 production by CD19 CAR-T cells cultured with target cells in the presence of increasing concentrations of GSI RO4929097.
(E) IL-2 production by CD19 CAR-T cells cultured with target cells (“K562 CD19”) or control cells (“KS562 BCMA”) in the presence of increasing concentrations of GSI RO4929097. Cells were administered the indicated amounts of the GSI and then washed (empty bars) or not (filled bars).
(F) Data from another experiment showing IL-2 production by CD19 CAR-T cells after overnight co-culture with K562 BCMA^+ or K562 CD19^+ cells following pre-incubation with varying concentrations of GSI. After washing, GSI was either added back in (+/+) or left out of the co-culture (+/−) to assess the reversibility of cytokine production.
(G) Specific lysis, by CD19 CAR-T cells, of the indicated target or control cells in the presence of GSI RO4929097.
(H) Proliferation of CD19 CAR-T cells cultured with CD19-expressing target cells in the presence or absence of GSI or with control cells in the absence of GSI. Cells were stained with CFSE and proliferation was measured by flow cytometry.
(I) Graphic representation of the number of cell divisions of CD19 CAR-T cells in the presence of the indicated concentrations of GSI RO4929097. The width of the horizontal bars represents the proportion of CAR-T cells in culture that divided the indicated number of generations (i.e., 5, 4, 3, 2, 1, or 0 generations) over the course of the experiment.
[…] Cell counts (CD8 staining) during expansion of CD19-specific CAR-T cells with CD19^+ TM LCL cells and exogenous IL-2 in the absence of GSI (circle) or the presence of GSI at 0.5 μM (square) or 5 μM (triangle).
(K) Cell counts of CD19-specific CAR-T cells (CD4:CD8 (1:1) expanded with CD19^+ TM. LCL cells in the absence or presence of GSI as indicated, but without the addition of exogenous IL-2.
(L) IFN-γ concentrations in supernatants of GSI-expanded anti-CD19 CAR CD8^+ T cells following re-stimulation with K562 cells (no antigen), K562 CD19^+ cells, or Raji cells.
(M, N) Production of IFN-γ (M) and IL-2 (N) by the CD4:CD8 anti-CD19 CAR-T cell mixture following re-stimulation with the indicated cell lines in the absence of GSI or the presence of either 0.5 μM or 5 μM GSI.
Without wishing to be bound by theory, a potential caveat of using GSI to augment BCMA on myeloma cells to improve CAR-T cell recognition is that high concentrations of GSI may inhibit T-cell signaling and effector functions. See Eagar et al., Immunity 20(4):407, 2004. To evaluate potential effects of GSI on CAR T cells in a setting where target ligand expression remains stable, CD19 CAR-T cells were co-cultured with Raji or K562/CD19^+ target cells in the presence of GSI (0.01 μM to 100 μM) and measured viability and effector function. Over this concentration range there was no effect on CD19 antigen expression (FIG. 5A) or on CAR-T cell viability after 24 hours (FIG. 5B). […] However, the ability of the CD19 CAR-T cells to specifically kill target cells was not affected by GSI concentration (FIG. 5G). […] To further investigate the dosage effect of GSI on CAR-T cell division, a dose titration of GSI RO4929097 was added to co-cultures of CD19 CAR-T and target cells.

[2] = system: MM cell lines; assay: Viability of MM cell lines cultured in GSI, propidium iodide staining; type: cell-based, human; details: 1.0 μM in culture
Procedure: (L) Viability of indicated MM-expressing cells as measured by propidium iodide staining of cell lines cultured in 1 μM GSI.
Next, the effect of removing GSI from MM cell culture was examined. […] Finally, the viability of the tested MM cell lines was not affected by addition of 1.0 μM RO429097 to culture (FIG. 3L).

[3] = expanded in 5 μM, 0.5 μM or no GSI

## CC(C)(C(=O)NCC(F)(F)C(F)(F)F)C(=O)N[C@@H]1C(=O)Nc2ccccc2-c2ccccc21 [RO4929097]
[1]; 10 μM GSI vs absence of GSI
  proliferation of CD19 CAR-T cells in response to target cells: less effectively
[1]; 8 days in culture with or without exogenous IL-2, GSI 0.5 or 5 μM
  expansion of CD19 CAR-T cells: did not show a decrease in expansion
[1]; GSI 0.01 μM to 100 μM
  CD19 antigen expression on target cells: no effect
[1]; GSI 0.01 μM to 100 μM, 24 hours
  CAR-T cell viability: no effect
[1]; GSI at therapeutic levels
  T cell function (cytokine production, cell lysis activity, proliferation): does not affect T cell function
[1]; [3]
  IFN-γ production on re-stimulation after expansion in GSI: did not show a significant difference
  IL-2 production on re-stimulation after expansion in GSI: not markedly different
[1]; non-therapeutic dose (10 μM)
  CAR-T cell division: detectably inhibit proliferation
[1]; range of GSI concentrations
  specific killing of target cells by CD19 CAR-T cells: not affected
[1]; therapeutic doses of GSI (0.01 μM-1 μM)
  CAR-T cell division: essentially unaffected or only slightly affected
[2]
  viability of MM cell lines: not affected
